According to US12410171B2, “Tropomyosin receptor kinase (TRK) degradation compounds and methods of use” (Cullgen (Shanghai), Inc., priority 2020, dated 2025):
Read-outs that look alike come from different tables or passages of the source.

Experiments:
KM12 cells = experiment: KM12 cell viability (CellTiter-Glo); type: cell-based; details: Homo sapiens
Procedure, shortened: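 Three-day exposure of KM12 cells (5000/well, RPMI 1640 with 10% FBS, 37 °C, 5% CO2) to compound dilution series, 3-fold over 8 or 11 points (top 1000 nM in the 8-point format) or 2-fold over 12. CellTiter-Glo readout, with IC50 fitted by nonlinear least-squares regression.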

TPM3-TRKA fusion protein = target: T1, TPM3-TRKA fusion protein (Homo sapiens, UniProt P04629); experiment: TPM3-TRKA fusion protein levels in KM12 cells (Western blot); type: cell-based; details: read-out: Degradation (at 10 nM)
T1 construct: The resulted chimeric proteins always retain the kinase domain of TRK proteins; TPM3 (fusion partner, N-terminal part of tropomyosin alpha-3, P06753); endogenous in cells; host or cells: KM12 colon cancer cells; the other entry of the earlier key: TPM3 (P06753, Tropomyosin alpha-3 chain)
T1 sequence (P04629 with tags, fused parts or gaps): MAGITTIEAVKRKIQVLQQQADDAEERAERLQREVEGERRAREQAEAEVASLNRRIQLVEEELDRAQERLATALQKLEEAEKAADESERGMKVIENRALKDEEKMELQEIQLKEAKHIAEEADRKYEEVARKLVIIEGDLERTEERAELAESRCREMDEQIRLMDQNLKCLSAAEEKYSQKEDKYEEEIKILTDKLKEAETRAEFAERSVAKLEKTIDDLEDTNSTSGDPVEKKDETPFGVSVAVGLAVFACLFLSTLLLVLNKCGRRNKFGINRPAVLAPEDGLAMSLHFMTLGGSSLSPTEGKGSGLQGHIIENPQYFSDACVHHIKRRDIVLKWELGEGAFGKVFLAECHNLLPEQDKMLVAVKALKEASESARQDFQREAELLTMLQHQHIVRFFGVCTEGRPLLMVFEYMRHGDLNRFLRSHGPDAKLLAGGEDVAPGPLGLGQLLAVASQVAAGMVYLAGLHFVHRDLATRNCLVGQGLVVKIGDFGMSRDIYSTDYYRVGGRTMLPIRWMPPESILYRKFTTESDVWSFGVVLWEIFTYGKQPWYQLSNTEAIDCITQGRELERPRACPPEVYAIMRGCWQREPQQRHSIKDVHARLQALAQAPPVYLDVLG
Procedure, shortened: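 TPM3-TRKA levels were assessed by Western blot with chemiluminescent detection and band densitometry, after SDS-PAGE of BCA-normalized RIPA lysates. Before lysis, KM12 cells received DMSO, compounds or matched control compounds at concentrations including 0.1, 1, 10 and 100 nM and 0.4–30 nM. Exposures lasted 4 h, 8–16 h or 16 h.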

[1] = 72 h, KM12 cell viability, CellTiter-Glo, three days treatment, read-out: IC50
[2] = 16 h, TPM3-TRKA degradation in KM12 cells at 10 nM compound, category of percentage degradation

| SMILES | IC50 (KM12 cells; [1]) | percent degradation of TPM3-TRKA protein at 0.01 µM (TPM3-TRKA fusion protein; [2]) | IC50 (KM12 cells; KM12, 72 h) | percent degradation of TPM3-TRKA protein at 0.01 µM (TPM3-TRKA fusion protein; KM12, 16 h) |
| --- | --- | --- | --- | --- |
| O=C1CCC(N2C(=O)c3ccc(N4CCC(CN5CCN(c6cccc(-c7cnc8ccc(N9CCC[C@@H]9c9cccc(F)c9)nn78)n6)CC5)C4)cc3C2=O)C(=O)N1 (stereo partly drawn) [TR-225, 2-(2,6-dioxopiperidin-3-yl)-5-(3-((4-(6-(6-((R)-2˜ (3-fluorophenyl)pyrrolidin-1-yl)imidazo[1,2-b]pyridazin-3-yl)pyridin-2-yl)piperazin-1-yl)methyl)pyrrolidin-1-yl)isoindoline-1,3-dione] | 8.4 nM | > 80% | – | – |
| O=C1CCC(n2c(=O)n(CCN3CCN(c4cccc(-c5cnc6ccc(N7CCC[C@@H]7c7cccc(F)c7)nn56)n4)CC3)c3ccccc32)C(=O)N1 (stereo partly drawn) [TR-227, 3-(3-(2-(4-(6-(6-((R)-2-(3-Fluorophenyl)pyrrolidin-1-yl)imidazo[1,2-b]pyridazin-3-yl)pyridin-2-yl)piperazin-1-yl)ethyl)-2-oxo-2,3-dihydro-1H-benzo[d]imidazol-1-yl)piperidine-2,6-dione] | 23.6 nM | 50 to 80% | – | – |
| O=C1CCC(n2c(=O)n(CCCN3CCN(c4cccc(-c5cnc6ccc(N7CCC[C@@H]7c7cccc(F)c7)nn56)n4)CC3)c3ccccc32)C(=O)N1 (stereo partly drawn) [TR-228, 3-(3-(3-(4-(6-(6-((R)-2-(3-fluorophenyl)pyrrolidin-1-yl)imidazo[1,2-b]pyridazin-3-yl)pyridin-2-yl)piperazin-1-yl)propyl)-2-oxo-2,3-dihydro-1H-benzo[d]imidazol-1-yl)piperidine-2,6-dione] | 56.3 nM | 50 to 80% | – | – |
| O=C1CCC(N2C(=O)c3ccc(NC(=O)CN4CCN(c5cccc(-c6cnc7ccc(N8CCC[C@@H]8c8cccc(F)c8)nn67)n5)CC4)cc3C2=O)C(=O)N1 (stereo partly drawn) [TR-233, N-(2-(2,6-dioxopiperidin-3-yl)-1,3-dioxoisoindolin-5-yl)-2-(4-(6-(6-((R)-2-(3-fluorophenyl)pyrrolidin-1-yl)imidazo[1,2-b]pyridazin-3-yl)pyridin-2-yl)piperazin-1-yl)acetamide] | 5 nM | > 80% | – | – |
| O=C1CCC(N2C(=O)Cc3c(NCCN4CCN(c5cccc(-c6cnc7ccc(N8CCC[C@@H]8c8cccc(F)c8)nn67)n5)CC4)cccc32)C(=O)N1 (stereo partly drawn) [TR-236, 3-(4-((2-(4-(6-(6-((R)-2-(3-Fluorophenyl)pyrrolidin-1-yl)imidazo[1,2-b]pyridazin-3-yl)pyridin-2-yl)piperazin-1-yl)ethyl)amino)-2-oxoindolin-1-yl)piperidine-2,6-dione] | 99.2 nM | < 50% | – | – |
| O=C1CCC(N2C(=O)c3ccc(CN4CC(N5CCN(c6cccc(-c7cnc8ccc(N9CCC[C@@H]9c9cccc(F)c9)nn78)n6)CC5)C4)cc3C2=O)C(=O)N1 (stereo partly drawn) [TR-237, 2-(2,6-dioxopiperidin-3-yl)-5-((3-(4-(6-(6-((R)-2-(3-fluorophenyl)pyrrolidin-1-yl)imidazo[1,2-b]pyridazin-3-yl)pyridin-2-yl)piperazin-1-yl)azetidin-1-yl)methyl)isoindoline-1,3-dione] | 138 nM | > 80% | – | – |
| Cn1c(=O)n(C2CCC(=O)NC2=O)c2cccc(C#CCN3CCN(c4cccc(-c5cnc6ccc(N7CCC[C@@H]7c7cccc(F)c7)nn56)n4)CC3)c21 (stereo partly drawn) [TR-238, 3-(4-(3-(4-(6-(6-((R)-2-(3-Fluorophenyl)pyrrolidin-1-yl)imidazo[1,2-b]pyridazin-3-yl)pyridin-2-yl)piperazin-1-yl)prop-1-yn-1-yl)-3-methyl-2-oxo-2,3-dihydro-1H-benzo[d]imidazol-1-yl)piperidine-2,6-dione] | – | – | 16.2 nM | > 80% |
| Cn1c(=O)n(C2CCC(=O)NC2=O)c2cccc(C#CCCN3CCN(c4cccc(-c5cnc6ccc(N7CCC[C@@H]7c7cccc(F)c7)nn56)n4)CC3)c21 (stereo partly drawn) [TR-239, 3-(4-(4-(4-(6-(6-((R)-2-(3-Fluorophenyl)pyrrolidin-1-yl)imidazo[1,2-b]pyridazin-3-yl)pyridin-2-yl)piperazin-1-yl)but-1-yn-1-yl)-3-methyl-2-oxo-2,3-dihydro-1H-benzo[d]imidazol-1-yl)piperidine-2,6-dione] | 45.9 nM | > 80% | – | – |
| Cn1c(=O)n(C2CCC(=O)NC2=O)c2cccc(CCCN3CCN(c4cccc(-c5cnc6ccc(N7CCC[C@@H]7c7cccc(F)c7)nn56)n4)CC3)c21 (stereo partly drawn) [TR-240, 3-(4-(3-(4-(6-(6-((R)-2-(3-fluorophenyl)pyrrolidin-1-yl)imidazo[1,2-b]pyridazin-3-yl)pyridin-2-yl)piperazin-1-yl)propyl)-3-methyl-2-oxo-2,3-dihydro-1H-benzo[d]imidazol-1-yl)piperidine-2,6-dione] | 16.1 nM | > 80% | – | – |
| Cn1c(=O)n(C2CCC(=O)NC2=O)c2cccc(CCCCN3CCN(c4cccc(-c5cnc6ccc(N7CCC[C@@H]7c7cccc(F)c7)nn56)n4)CC3)c21 (stereo partly drawn) [TR-241, 3-(4-(4-(4-(6-(6-((R)-2˜ (3-fluorophenyl)pyrrolidin-1-yl)imidazo[1,2-b]pyridazin-3-yl)pyridin-2-yl)piperazin-1-yl)butyl)-3-methyl-2-oxo-2,3-dihydro-1H-benzo[d]imidazol-1-yl)piperidine-2,6-dione] | – | – | 6.1 nM | > 80% |
| Cn1c(=O)n(C2CCC(=O)NC2=O)c2cccc(OCCN3CCN(c4cccc(-c5cnc6ccc(N7CCC[C@@H]7c7cccc(F)c7)nn56)n4)CC3)c21 (stereo partly drawn) [TR-244, 3-(4˜ (2-(4-(6-(6-((R)-2-(3-Fluorophenyl)pyrrolidin-1-yl)imidazo[1,2-b]pyridazin-3-yl)pyridin-2-yl)piperazin-1-yl)ethoxy)-3-methyl-2-oxo-2,3-dihydro-1H-benzo[d]imidazol-1-yl)piperidine-2,6-dione] | 298 nM | < 50% | – | – |
| Cn1c(=O)n(C2CCC(=O)NC2=O)c2ccc(OCCN3CCN(c4cccc(-c5cnc6ccc(N7CCC[C@@H]7c7cccc(F)c7)nn56)n4)CC3)cc21 (stereo partly drawn) [TR-246, 3-(5-(2-(4-(6-(6-((R)-2-(3-Fluorophenyl)pyrrolidin-1-yl)imidazo[1,2-b]pyridazin-3-yl)pyridin-2-yl)piperazin-1-yl)ethoxy)-3-methyl-2-oxo-2,3-dihydro-1H-benzo[d]imidazol-1-yl)piperidine-2,6-dione] | 101 nM | > 80% | – | – |
| O=C1CCC(n2c(=O)oc3c(NCCN4CCN(c5cccc(-c6cnc7ccc(N8CCC[C@@H]8c8cccc(F)c8)nn67)n5)CC4)cccc32)C(=O)N1 (stereo partly drawn) [TR-247, 3-(7-((2-(4-(6-(6-((R)-2-(3-Fluorophenyl)pyrrolidin-1-yl)imidazo[1,2-b]pyridazin-3-yl)pyridin-2-yl)piperazin-1-yl)ethyl)amino)-2-oxobenzo[d]oxazol-3 (2H)-yl)piperidine-2,6-dione] | 8.2 nM | > 80% | – | – |
| O=C1CCC(N2C(=O)c3ccc(CN4CC(CN5CCN(c6cccc(-c7cnc8ccc(N9CCC[C@@H]9c9cccc(F)c9)nn78)n6)CC5)C4)cc3C2=O)C(=O)N1 (stereo partly drawn) [TR-248, 2-(2,6-Dioxopiperidin-3-yl)-5-((3-((4-(6-(6-((R)-2-(3-fluorophenyl)pyrrolidin-1-yl)imidazo[1,2-b]pyridazin-3-yl)pyridin-2-yl)piperazin-1-yl)methyl)azetidin-1-yl)methyl)isoindoline-1,3-dione] | 27.4 nM | > 80% | – | – |
| O=C1CCC(N2C(=O)c3ccc(CN4CC(CN5CCN(c6ccc(C(=O)Nc7n[nH]c8ccc(Cc9cc(F)cc(F)c9)cc78)c(NC7CCOCC7)c6)CC5)C4)cc3C2=O)C(=O)N1 (stereo not drawn) [TR-249, N-(5-(3,5-difluorobenzyl)-1H-indazol-3-yl)-4-(4-((1-((2-(2,6-dioxopiperidin-3-yl)-1,3-dioxoisoindolin-5-yl)methyl)azetidin-3-yl)methyl)piperazin-1-yl)-2-((tetrahydro-2H-pyran-4-yl)amino)benzamide] | 15.1 nM | > 80% | – | – |
| Cn1c(=O)n(C2CCC(=O)NC2=O)c2ccc(N3CC(CN4CCN(c5cccc(-c6cnc7ccc(N8CCC[C@@H]8c8cccc(F)c8)nn67)n5)CC4)C3)cc21 (stereo partly drawn) [TR-250, 3-(5-(3-((4-(6-(6-((R)-2-(3-fluorophenyl)pyrrolidin-1-yl)imidazo[1,2-b]pyridazin-3-yl)pyridin-2-yl)piperazin-1-yl)methyl)azetidin-1-yl)-3-methyl-2-oxo-2,3-dihydro-1H-benzo[d]imidazol-1-yl)piperidine-2,6-dione] | 16.1 nM | > 80% | – | – |
| O=C1CCC(N2C(=O)c3ccc(CN4CC(CN5CCN(c6ccc(C(=O)Nc7n[nH]c8ccc(Cc9cc(F)cc(F)c9)cc78)c(NCCF)c6)CC5)C4)cc3C2=O)C(=O)N1 (stereo not drawn) [TR-251] | 46.5 nM | > 80% | – | – |
| O=C1CCC(N2C(=O)c3ccc(CN4CC(N5CCN(c6ccc(C(=O)Nc7n[nH]c8ccc(Cc9cc(F)cc(F)c9)cc78)c(NCCF)c6)CC5)C4)cc3C2=O)C(=O)N1 (stereo not drawn) [TR-252, N—(S-(3,5-Difluorobenzyl)-1H-indazol-3-yl)-4-(4-(1-((2-(2,6-dioxopiperidin-3-yl)-1,3-dioxoisoindolin-5-yl)methyl)azetidin-3-yl)piperazin-1-yl)-2-((2-fluoroethyl)amino)benzamide] | – | – | 47.6 nM | > 80% |
